Assay results taken from patent US20110039721A1, “METHOD FOR PREDICTION ABOUT CARCINOGENICITY OF SUBSTANCE IN RODENT” (Chemicals Evaluation and Research Institute, priority 2007, published 2011).

Assays:
[1] = test system: mRNA expressed from the genes (A) to (D) in rat liver; test: Behavior of genes (mRNA expression level, oligo-DNA microarray) in rat liver after 28-day oral administration; type: in vivo
In short: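 Liver mRNA measured by oligo-DNA microarray after 28 days of once-daily oral gavage in 5-week-old male F344 rats (n=4 per group), with vehicle controls given equal solvent volume. Significance threshold: 1.5-fold up or down versus control, with changes opposite in direction to other carcinogens counted as not significant.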

liver = conditions: classification of the substance (Cr+/Cr−); cited from earlier work
rodent = conditions: classification of the substance (C+/C−); cited from earlier work
[2] = classification of the substance (M+/M−); cited from earlier work
[3] = gene group (A), Unigene No. Rn.167075
[4] = gene group (C), Unigene No. Rn.120914

## OC[C@@H](O)[C@@H](O)[C@H](O)[C@H](O)CO [TS009, D-Mannitol]
[1]; gene group (A), Unigene No. Rn.144554
  Behavior of gene caused by administration of chemical substance, Gene No. 4846: −
[1]; [3]
  Behavior of gene caused by administration of chemical substance, Gene No. 2026: −
  Behavior of gene caused by administration of chemical substance, Gene No. 4218: −
[1]; gene group (A), Unigene No. Rn.5834
  Behavior of gene caused by administration of chemical substance, Gene No. 6182: −
[1]; gene group (A), Unigene No. Rn.9836
  Behavior of gene caused by administration of chemical substance, Gene No. 5600: −
[1]; gene group (B), Unigene No. Rn.1430
  Behavior of gene caused by administration of chemical substance, Gene No. 1494: −
[1]; gene group (B), Unigene No. Rn.19329
  Behavior of gene caused by administration of chemical substance, Gene No. 2045: −
[1]; gene group (B), Unigene No. Rn.21240
  Behavior of gene caused by administration of chemical substance, Gene No. 2203: −
[1]; gene group (C), Unigene No. Rn.106184
  Behavior of gene caused by administration of chemical substance, Gene No. 533: −
[1]; gene group (C), Unigene No. Rn.108075
  Behavior of gene caused by administration of chemical substance, Gene No. 725: −
[1]; gene group (C), Unigene No. Rn.11766
  Behavior of gene caused by administration of chemical substance, Gene No. 1163: −
[1]; gene group (C), Unigene No. Rn.118529
  Behavior of gene caused by administration of chemical substance, Gene No. 4973: −
[1]; gene group (C), Unigene No. Rn.119024
  Behavior of gene caused by administration of chemical substance, Gene No. 4095: −
[1]; [4]
  Behavior of gene caused by administration of chemical substance, Gene No. 1334: −
  Behavior of gene caused by administration of chemical substance, Gene No. 6620: −
[1]; gene group (C), Unigene No. Rn.123063
  Behavior of gene caused by administration of chemical substance, Gene No. 6303: −
[1]; gene group (C), Unigene No. Rn.143213
  Behavior of gene caused by administration of chemical substance, Gene No. 5878: −
[1]; gene group (C), Unigene No. Rn.144946
  Behavior of gene caused by administration of chemical substance, Gene No. 1131: −
[1]; gene group (C), Unigene No. Rn.14744
  Behavior of gene caused by administration of chemical substance, Gene No. 1562: −
[1]; gene group (C), Unigene No. Rn.1647
  Behavior of gene caused by administration of chemical substance, Gene No. 1741: −
[1]; gene group (C), Unigene No. Rn.164817
  Behavior of gene caused by administration of chemical substance, Gene No. 893: −
[1]; gene group (C), Unigene No. Rn.167685
  Behavior of gene caused by administration of chemical substance, Gene No. 6026: −
[1]; gene group (C), Unigene No. Rn.185941
  Behavior of gene caused by administration of chemical substance, Gene No. 154: −
[1]; gene group (C), Unigene No. Rn.18728
  Behavior of gene caused by administration of chemical substance, Gene No. 1993: −
[1]; gene group (C), Unigene No. Rn.201760
  Behavior of gene caused by administration of chemical substance, Gene No. 813: −
[1]; gene group (C), Unigene No. Rn.23969
  Behavior of gene caused by administration of chemical substance, Gene No. 2494: −
[1]; gene group (C), Unigene No. Rn.24561
  Behavior of gene caused by administration of chemical substance, Gene No. 2546: −
[1]; gene group (C), Unigene No. Rn.43232
  Behavior of gene caused by administration of chemical substance, Gene No. 3776: −
[1]; gene group (C), Unigene No. Rn.4620
  Behavior of gene caused by administration of chemical substance, Gene No. 3929: −
[1]; gene group (C), Unigene No. Rn.9757
  Behavior of gene caused by administration of chemical substance, Gene No. 1119: −
[1]; gene group (C), Unigene No. Rn.9779
  Behavior of gene caused by administration of chemical substance, Gene No. 6742: −
[1]; gene group (C), Unigene No. Rn.9862
  Behavior of gene caused by administration of chemical substance, Gene No. 5634: −
[1]; gene group (D), Unigene No. Rn.9939
  Behavior of gene caused by administration of chemical substance, Gene No. 5726: −
liver
  Liver carcinogenicity: Cr−
rodent
  Carcinogenicity: C−
[2]
  Mutagenicity by Ames test: M−
